Source: ChEMBL document CHEMBL1134194, “Anti-HIV activity of aromatic and heterocyclic thiazolyl thiourea compounds” (Bioorg Med Chem Lett, 2001)
Structures can show the parent of a compound that is named as a salt.

Assays:
[1] = target: Human immunodeficiency virus type 1 reverse transcriptase (Human immunodeficiency virus 1, UniProt Q72547, K103N/Y181C); experiment: Inhibitory activity against non-nucleoside reverse transcriptase inhibitors (NNRTI) -resistant HIV-1 strain A17 variant with Y181C plus K103N mutations in RT (reverse transcriptase)
[2] = system: Human immunodeficiency virus 1; experiment: Tested for the ability to inhibit the replication of HIV-1 strain HTLV IIIB in human peripheral blood mononuclear cells (PBMC); type: functional, organism-based
[3] = Cytotoxic concentration was evaluated against human peripheral blood mononuclear cells (PBMC); type: functional
[4] = system: Human immunodeficiency virus 1; experiment: Selectivity index was determined; type: functional

Structure (SMILES) | IC50 [1] [µM] | IC50 [2] [µM] | CC50 [3] [µM] | Selectivity index [4]
Oc1ccc(CCNC(=S)Nc2ccc(Br)cn2)cc1 | > 100 | 0.007 | > 100 | –
S=C(NCCc1cccs1)Nc1nccs1 | – | < 0.001 | 71 | 71000
S=C(NCCc1cccs1)Nc1ccc(Br)cn1 | 3.3 | – | > 100 | –
S=C(NCCN1CCCCC1)Nc1nccs1 | – | > 100 | – | –
S=C(NCCc1c[nH]c2ccccc12)Nc1nccs1 | 3.7 | < 0.001 | 28 | 28000
S=C(NCCCn1ccnc1)Nc1nccs1 | > 100 | < 0.001 | 35 | 35000
S=C(NCCOc1ccccc1)Nc1nccs1 | > 100 | < 0.001 | > 100 | >100000
CC(C)Nc1cccnc1N1CCN(C(=O)c2cc3cc(NS(C)(=O)=O)ccc3[nH]2)CC1 [DELAVIRDINE MESYLATE] | – | 0.009 | – | –
S=C(NCC12CC3CC(CC(C3)C1)C2)Nc1nccs1 | 1.3 | < 0.001 | 40 | 40000
Cc1ccc(CC/N=C(\S)Nc2nccs2)cc1 | > 100 | 0.07 | > 100 | 1429
CCC(NC(=S)Nc1nccs1)c1ccccc1 (stereo unspecified) | 1.5 | – | – | –
S=C(NCCC1=CCCCC1)Nc1nccs1 | > 100 | – | – | –
S=C(NCc1ccco1)Nc1nccs1 | 0.6 | < 0.001 | > 100 | >100000
Oc1ccc(CC/N=C(\S)Nc2nccs2)cc1 | – | > 100 | – | –
Cc1ccnc2c1NC(=O)c1cccnc1N2C1CC1 [NEVIRAPINE] | – | 0.034 | – | –
S=C(NCCc1ccccn1)Nc1nccs1 | – | 1 | 100 | 100
